Measured values reported in PMC11171523 (2024).

Legend:
[1] = test system: poly A–poly U (pApU, AU-RNA) (RNA, polymer) A/U; assay: UV melting at 260 nm; details: Na+ (sodium cacodylate, I = 0.05 M); pH 7; ratio [dye]/[polynucleotide] = 0.1; error ±0.5 °C; per base
[2] = test system: poly A–poly U (pApU, AU-RNA) (RNA, polymer) A/U; assay: fluorimetric titration, Scatchard fit; details: Na+ (sodium cacodylate, I = 0.05 M); pH 7.0, 25 °C; dye 50 nM; n fixed at 0.2; polynucleotide as phosphate; per base
[3] = test system: poly dAdT–poly dAdT (poly(dAdT)2, AT-DNA) (DNA, polymer) AT; assay: CD titration (induced CD); details: Na+ (sodium cacodylate, I = 0.05 M), pH 7
[4] = test system: poly dGdC–poly dGdC (poly(dGdC)2, GC-DNA) (DNA, polymer) GC; assay: CD titration (induced CD); details: Na+ (sodium cacodylate, I = 0.05 M), pH 7
[5] = ratio [dye]/[polynucleotide] = 0.1 and 0.5, negative ICD at 308–324 nm

C#CC[N+](C)(C)c1ccc(/C=C/c2cc(/C=C/c3ccc([N+](C)(C)CC#C)cc3)c(/C=C/c3ccc([N+](C)(C)CC#C)cc3)cc2/C=C/c2ccc([N+](C)(C)CC#C)cc2)cc1
ΔTm [1]: +10.4 °C
log Ks [2]: 8.9

C#CC[N+](C)(C)c1ccc(/C=C/c2cc(/C=C/c3ccc([N+](C)(C)CC#C)cc3)cc(/C=C/c3ccc([N+](C)(C)CC#C)cc3)c2)cc1
ΔTm [1]: +18.1 °C
log Ks [2]: 8.6

CCCC[N+](C)(CCCC)c1ccc(/C=C/c2cc(/C=C/c3ccc([N+](C)(CCCC)CCCC)cc3)c(/C=C/c3ccc([N+](C)(CCCC)CCCC)cc3)cc2/C=C/c2ccc([N+](C)(CCCC)CCCC)cc2)cc1
ΔTm [1]: 0 °C
log Ks [2]: 8.6

CCCC[N+](C)(CCCC)c1ccc(/C=C/c2cc(/C=C/c3ccc([N+](C)(CCCC)CCCC)cc3)cc(/C=C/c3ccc([N+](C)(CCCC)CCCC)cc3)c2)cc1
binding [3, 5]: yes
binding [4, 5]: yes
ΔTm [1]: +5.1 °C
log Ks [2]: 8.9

CCCC[n+]1ccc(/C=C/c2cc(/C=C/c3cc[n+](CCCC)cc3)c(/C=C/c3cc[n+](CCCC)cc3)cc2/C=C/c2cc[n+](CCCC)cc2)cc1
ΔTm [1]: +1.7 °C
log Ks [2]: 7.6

CCCC[n+]1ccc(/C=C/c2cc(/C=C/c3cc[n+](CCCC)cc3)cc(/C=C/c3cc[n+](CCCC)cc3)c2)cc1
ΔTm [1]: +1.5 °C
log Ks [2]: 8.7

C[N+](C)(C)c1ccc(/C=C/c2cc(/C=C/c3ccc([N+](C)(C)C)cc3)c(/C=C/c3ccc([N+](C)(C)C)cc3)cc2/C=C/c2ccc([N+](C)(C)C)cc2)cc1
ΔTm [1]: +12.5 °C
log Ks [2]: 8.6

C[N+](C)(C)c1ccc(/C=C/c2cc(/C=C/c3ccc([N+](C)(C)C)cc3)cc(/C=C/c3ccc([N+](C)(C)C)cc3)c2)cc1
binding ([3]; ratio [dye]/[polynucleotide] = 0.5, weaker ICD than GC-DNA): yes
binding ([4]; ratio [dye]/[polynucleotide] = 0.5, strong negative ICD at 325 nm): yes
ΔTm [1]: +23.2 °C
log Ks [2]: 8.9

C[n+]1ccc(/C=C/c2cc(/C=C/c3cc[n+](C)cc3)c(/C=C/c3cc[n+](C)cc3)cc2/C=C/c2cc[n+](C)cc2)cc1
ΔTm [1]: +6.4 °C
log Ks [2]: 8.2

C[n+]1ccc(/C=C/c2cc(/C=C/c3cc[n+](C)cc3)cc(/C=C/c3cc[n+](C)cc3)c2)cc1
ΔTm [1]: +8.5 °C
log Ks [2]: 8.7
